Here are results for seven compounds from PubChem BioAssay AID588774 (The Scripps Research Institute Molecular Screening Center, 2011).

Molecules are shown by their SMILES. Calls of active or inactive are those of the source.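 Rule for the calls: active = target enzyme inhibited at least 50% at a set dose, and selective over every off-target enzyme by a set factor; inactive = weaker inhibition or too little selectivity.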

The target in assay [1] is Monoglyceride lipase (Mus musculus) (UniProt O35678). The experiment in a line: pPAFAH inhibition and serine hydrolase selectivity, SAR follow-up, selectivity assay for pPAFAH inhibitor project, biochemical, gel-based, FP-Rh fluorescence, complex proteome, SAR compounds (AID 588774).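 For inhibition: 0% = DMSO-only band intensity and 100% = blank gel background.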 The following applies: gel-based competitive ABPP, MAGL, stronger effect = higher value.
Sequence of Monoglyceride lipase (Mus musculus) (O35678 whole entry, looked up): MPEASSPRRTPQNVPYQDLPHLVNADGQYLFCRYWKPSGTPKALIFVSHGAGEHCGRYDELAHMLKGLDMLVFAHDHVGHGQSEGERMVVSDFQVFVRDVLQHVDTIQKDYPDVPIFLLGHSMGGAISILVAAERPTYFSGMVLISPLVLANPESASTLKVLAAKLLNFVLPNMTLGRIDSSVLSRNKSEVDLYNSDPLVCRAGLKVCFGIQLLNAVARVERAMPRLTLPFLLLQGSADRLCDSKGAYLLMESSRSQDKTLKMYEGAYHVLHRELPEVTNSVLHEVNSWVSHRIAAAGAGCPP
The target in assay [2] is Platelet-activating factor acetylhydrolase (Mus musculus) (UniProt Q60963). The description is as above. The following applies: gel-based competitive ABPP, pPAFAH, stronger effect = higher value.
Sequence of Platelet-activating factor acetylhydrolase (Mus musculus) (Q60963 whole entry, looked up): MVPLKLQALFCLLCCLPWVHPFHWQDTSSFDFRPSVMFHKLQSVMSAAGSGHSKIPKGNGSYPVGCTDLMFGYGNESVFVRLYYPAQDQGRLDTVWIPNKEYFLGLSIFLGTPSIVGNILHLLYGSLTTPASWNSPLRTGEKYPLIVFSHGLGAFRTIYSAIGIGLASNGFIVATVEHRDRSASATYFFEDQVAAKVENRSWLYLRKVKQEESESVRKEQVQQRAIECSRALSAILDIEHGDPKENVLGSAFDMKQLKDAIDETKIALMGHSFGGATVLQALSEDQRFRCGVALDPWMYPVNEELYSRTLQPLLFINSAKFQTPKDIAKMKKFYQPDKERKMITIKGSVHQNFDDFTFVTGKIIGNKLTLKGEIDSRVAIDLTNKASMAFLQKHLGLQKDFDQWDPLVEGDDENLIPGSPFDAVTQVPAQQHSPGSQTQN
The next assay has as its system ABHD3. Described as above. The following applies: gel-based competitive ABPP, at 10 µM, stronger effect = higher value.
Another assay concerns LYPLA1. Described as above. Conditions: gel-based competitive ABPP, stronger effect = higher value.
A further assay deals with ABHD4 (UniProt Q8VD66). Described as above. Conditions: gel-based competitive ABPP, stronger effect = higher value.
Sequence of ABHD4 (Q8VD66 whole entry, looked up): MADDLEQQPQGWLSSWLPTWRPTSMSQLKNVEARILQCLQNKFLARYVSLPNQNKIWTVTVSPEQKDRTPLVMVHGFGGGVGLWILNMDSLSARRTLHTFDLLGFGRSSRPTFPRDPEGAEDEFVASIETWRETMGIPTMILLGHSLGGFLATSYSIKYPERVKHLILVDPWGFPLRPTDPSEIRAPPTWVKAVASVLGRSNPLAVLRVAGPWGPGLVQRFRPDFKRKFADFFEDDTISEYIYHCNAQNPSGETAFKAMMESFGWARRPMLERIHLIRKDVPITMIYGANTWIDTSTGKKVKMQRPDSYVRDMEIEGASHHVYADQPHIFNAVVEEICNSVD
In the next assay the test system is pPAFAH. Described as above. The following applies: gel-based competitive ABPP, anti-targets inhibited, at 10 µM.
The next assay has as its system FAAH. The assay is described as above. The following applies: gel-based competitive ABPP, stronger effect = higher value.
The subject of the next assay is LYPLA2. The description is as above. Conditions: gel-based competitive ABPP, stronger effect = higher value.
The test system of a further assay is ABHD6. The description is as above. Conditions: gel-based competitive ABPP, stronger effect = higher value.
Test in assay [3]: as above
Conditions: gel-based competitive ABPP, at 10 µM.

Regarding `Cc1cc(N2CCN(C(=O)n3oc4cc(Cl)ccc4c3=O)CC2)c2ccccc2n1`, the inhibition in assay [1] (at 10 µM) was 97%; in [1] (inhibition, at 0.1 µM), 54%; in assay [1] (inhibition, at 1 µM) it was 73%; in assay [2] (at 10 µM), 99%; in [2] (inhibition, at 0.1 µM) it was 87%; in assay [2] (inhibition, at 1 µM), 87%. Besides, the inhibition in the assay with ABHD3 is 0% (inactive); in the assay with LYPLA1 (at 10 µM) it was 73% (inactive); with LYPLA1 (inhibition, at 1 µM) it was 13%; on ABHD4 (at 10 µM), 48% (inactive); on ABHD4 (inhibition, at 0.1 µM), 36%; on ABHD4 (inhibition, at 1 µM) it was 38%. In addition, the inhibition was 99% (inactive) in the assay with FAAH (at 10 µM); 39% in the assay on FAAH (inhibition, at 0.1 µM); 79% in the assay on FAAH (inhibition, at 1 µM); 24% (inactive) with LYPLA2 (at 10 µM); 3% in the assay on LYPLA2 (inhibition, at 0.1 µM); 6% in the assay on LYPLA2 (inhibition, at 1 µM). Moreover, the inhibition in the assay on ABHD6 (at 10 µM) is 38% (inactive); in the assay with ABHD6 (inhibition, at 0.1 µM), 19%; with ABHD6 (inhibition, at 1 µM), 32%. Also, the anti-target count with pPAFAH was found to be 3; in assay [3] (ABHD3, anti-targets inhibited), 3; in assay [3] (ABHD4, anti-targets inhibited) it was 3; in assay [3] (ABHD6, anti-targets inhibited), 3; in [3] (FAAH, anti-targets inhibited) it was 3; in assay [3] (LYPLA1, anti-targets inhibited) it was 3. Moreover, the anti-target count in [3] (LYPLA2, anti-targets inhibited) is 3; in assay [3] (MAGL, anti-targets inhibited), 3.
With `Cc1cc(N2CCN(C(=O)Oc3ccc(-c4ccc(Br)cc4)cc3)CC2)c2ccccc2n1`, the inhibition in assay [1] (at 10 µM) was 0% (inactive); in assay [2] (at 10 µM) it was 56% (inactive); in assay [2] (inhibition, at 0.1 µM) it was 2%; in assay [2] (inhibition, at 1 µM), 37%; with ABHD3, 0% (inactive); with LYPLA1 (at 10 µM), 0% (inactive). In addition, the inhibition on ABHD4 (at 10 µM), in the assay on FAAH (at 10 µM), in the assay on LYPLA2 (at 10 µM) and in the assay with ABHD6 (at 10 µM) was 0% (inactive) in each case. Besides, the anti-target count worked out at 0 in the assay with pPAFAH; 0 in [3] (ABHD3, anti-targets inhibited); 0 in assay [3] (ABHD4, anti-targets inhibited); 0 in assay [3] (ABHD6, anti-targets inhibited); 0 in assay [3] (FAAH, anti-targets inhibited); 0 in assay [3] (LYPLA1, anti-targets inhibited). For the same compound, the anti-target count was 0 in assay [3] (LYPLA2, anti-targets inhibited) and 0 in assay [3] (MAGL, anti-targets inhibited).
For `Cc1cc(N2CCN(C(=O)Oc3ccc([N+](=O)[O-])cc3)CC2)c2ccccc2n1`, the inhibition is 64% (inactive) in assay [1] (at 10 µM); 23% in [1] (inhibition, at 0.1 µM); 51% in assay [1] (inhibition, at 1 µM); 100% (inactive) in [2] (at 10 µM); 47% in assay [2] (inhibition, at 0.1 µM); 95% in assay [2] (inhibition, at 1 µM). Besides, the inhibition was 0% (inactive) with ABHD3; 0% (inactive) with LYPLA1 (at 10 µM); 0% (inactive) at ABHD4 (at 10 µM); 71% (inactive) with FAAH (at 10 µM); 16% with FAAH (inhibition, at 0.1 µM); 36% in the assay with FAAH (inhibition, at 1 µM). The inhibition in the assay on LYPLA2 (at 10 µM) and in the assay on ABHD6 (at 10 µM) was 0% (inactive) each time. In addition, the anti-target count in the assay with pPAFAH worked out at 2; in assay [3] (ABHD3, anti-targets inhibited) it was 2; in [3] (ABHD4, anti-targets inhibited), 2; in assay [3] (ABHD6, anti-targets inhibited), 2; in [3] (FAAH, anti-targets inhibited), 2; in [3] (LYPLA1, anti-targets inhibited) it was 2. Besides, the anti-target count in assay [3] (LYPLA2, anti-targets inhibited) was found to be 2; in [3] (MAGL, anti-targets inhibited), 2.
Turning to `Cc1cc(N2CCN(C(=O)Oc3ccc(-n4cccc4)cc3)CC2)c2ccccc2n1`, the inhibition in [1] (at 10 µM) is 0% (inactive); in [2] (at 10 µM) it was 87% (inactive); in assay [2] (inhibition, at 0.1 µM), 35%; in assay [2] (inhibition, at 1 µM), 80%; with ABHD3 it was 0% (inactive); with LYPLA1 (at 10 µM), 0% (inactive). In addition, the inhibition at ABHD4 (at 10 µM), in the assay on FAAH (at 10 µM), in the assay with LYPLA2 (at 10 µM) and in the assay with ABHD6 (at 10 µM) was 0% (inactive) throughout. The anti-target count in the assay on pPAFAH came to 0; in assay [3] (ABHD3, anti-targets inhibited) it was 0; in assay [3] (ABHD4, anti-targets inhibited), 0; in assay [3] (ABHD6, anti-targets inhibited), 0; in assay [3] (FAAH, anti-targets inhibited), 0; in assay [3] (LYPLA1, anti-targets inhibited) it was 0. The anti-target count was 0 in assay [3] (LYPLA2, anti-targets inhibited) and 0 in assay [3] (MAGL, anti-targets inhibited).
Turning to `Cc1cc(N2CCN(C(=O)Oc3noc4cc(Cl)ccc34)CC2)c2ccccc2n1`, the inhibition in [1] (at 10 µM) is 86%; in assay [1] (inhibition, at 0.1 µM), 79%; in assay [1] (inhibition, at 1 µM) it was 83%; in [2] (at 10 µM), 100%; in assay [2] (inhibition, at 0.1 µM) it was 89%; in assay [2] (inhibition, at 1 µM), 91%. Further, the inhibition in the assay with ABHD3 was 0% (inactive); with LYPLA1 (at 10 µM), 50% (inactive); with LYPLA1 (inhibition, at 0.1 µM), 20%; in the assay with LYPLA1 (inhibition, at 1 µM) it was 25%; on ABHD4 (at 10 µM), 0% (inactive); with FAAH (at 10 µM), 100%. For the same compound, the inhibition in the assay with FAAH (inhibition, at 0.1 µM) was 87%; in the assay on FAAH (inhibition, at 1 µM) it was 100%; with LYPLA2 (at 10 µM), 0% (inactive); in the assay on ABHD6 (at 10 µM) it was 53%; in the assay on ABHD6 (inhibition, at 0.1 µM) it was 53%; with ABHD6 (inhibition, at 1 µM) it was 53%. In addition, the anti-target count in the assay with pPAFAH is 4; in [3] (ABHD3, anti-targets inhibited) it was 4; in assay [3] (ABHD4, anti-targets inhibited), 4; in [3] (ABHD6, anti-targets inhibited), 4; in assay [3] (FAAH, anti-targets inhibited), 4; in assay [3] (LYPLA1, anti-targets inhibited) it was 4. In addition, the anti-target count is 4 in assay [3] (LYPLA2, anti-targets inhibited) and 4 in [3] (MAGL, anti-targets inhibited).
In the case of `Cc1cc(N2CCN(C(=O)Oc3ccc(C4CCCC4)cc3)CC2)c2ccccc2n1`, the inhibition in assay [1] (at 10 µM) is 0% (inactive); in assay [2] (at 10 µM) it was 91% (inactive); in assay [2] (inhibition, at 0.1 µM) it was 28%; in [2] (inhibition, at 1 µM) it was 82%; with ABHD3, 0% (inactive); in the assay with LYPLA1 (at 10 µM) it was 0% (inactive). Also, the inhibition was 27% (inactive) on ABHD4 (at 10 µM), 0% (inactive) in the assay on FAAH (at 10 µM), 0% (inactive) in the assay on LYPLA2 (at 10 µM) and 0% (inactive) in the assay on ABHD6 (at 10 µM). Moreover, the anti-target count with pPAFAH worked out at 0; in assay [3] (ABHD3, anti-targets inhibited) it was 0; in assay [3] (ABHD4, anti-targets inhibited) it was 0; in assay [3] (ABHD6, anti-targets inhibited) it was 0; in [3] (FAAH, anti-targets inhibited), 0; in assay [3] (LYPLA1, anti-targets inhibited) it was 0. The anti-target count in assay [3] (LYPLA2, anti-targets inhibited) is 0; in [3] (MAGL, anti-targets inhibited), 0.
In the case of `Cc1cc(N2CCN(C(=O)Oc3ccc(C4CCCCC4)cc3)CC2)c2ccccc2n1`, the inhibition in [1] (at 10 µM) was 0% (inactive); in [2] (at 10 µM), 95% (inactive); in assay [2] (inhibition, at 0.1 µM), 2%; in assay [2] (inhibition, at 1 µM) it was 63%; in the assay with ABHD3, 0% (inactive); in the assay on LYPLA1 (at 10 µM), 0% (inactive). Besides, the inhibition on ABHD4 (at 10 µM), in the assay with FAAH (at 10 µM), in the assay with LYPLA2 (at 10 µM) and in the assay on ABHD6 (at 10 µM) was 0% (inactive) each time. Further, the anti-target count is 0 in the assay on pPAFAH; 0 in assay [3] (ABHD3, anti-targets inhibited); 0 in assay [3] (ABHD4, anti-targets inhibited); 0 in [3] (ABHD6, anti-targets inhibited); 0 in [3] (FAAH, anti-targets inhibited); 0 in assay [3] (LYPLA1, anti-targets inhibited). Moreover, the anti-target count turned out to be 0 in [3] (LYPLA2, anti-targets inhibited) and 0 in [3] (MAGL, anti-targets inhibited).
